The results in this text go back to US20030130200A1, “Small peptides and methods for treatment of asthma and inflammation” (Hisatek, LLC, priority 1997, published 2003).

“Also recorded” adds a separate entry of the source. Where no end group is shown, it is not given here. The star is where a group is joined. For = O=C*

This assay deals with OVA-induced asthmatic mice. The assay can be described thus: OVA-induced bronchial asthma mouse model, Standard/Resolution protocols, drug before each i.n. challenge. The format is in vivo, mouse (female BALB/c). The source says: The OVA-Induced Bronchial Asthma Mouse Model for Inhibition of Mast Cell Degranulation
Reagents: Crystalline OVA was obtained from Pierce Chem. Co. (Rockford, Ill.) aluminum potassium sulfate (alum) from Sigma Chem. Co. (St. Louis, Mo.), pyrogen-free distilled water from Baxter, Healthcare Corporation (Deerfield, Ill.), 0.9% sodium chloride (normal saline) from Lymphomed (Deerfield, Ill.) and Trappsol™ HPB-L100 (aqueous hydroxypropyl beta cyclodextrin; 45 wt/vol % aqueous solution) from Cyclodextrin Technologies Development, Inc. (Gainesville, Fla.). The OVA (500 μg/ml in normal saline) was mixed with equal volumes of 10% (wt/vol) alum in distilled water. The mixture (pH 6.5 using 10 N NaOH) after incubation for 60 minutes at room temperature underwent centrifugation at 750 g for 5 minutes; the pellet was resuspended to the original volume in distilled water and used within one hour.
The selective 5-lipoxtgenase inhibitor, Zileuton (N-[1-benzo[b]thien-2-ylethyl]-N-hydroxyurea; J. Pharmacol Exp Ther. 1991; 256: 929-937), was kindly provided by Drs. Bell and George W. Carter (Abbott Laboratories, Abbott Part, Ill.). Zileuton was dissolved in Trappsol.™. Histatek, Inc. (Seattle, Wash.) provided the mast cell degranulation inhibitor, f-Met-Leu-Phe-Phe (“HK-X”).
Female BALB/c […] (6-8 wk of age at purchase; D and K, Seattle Wash.) were housed under conventional conditions for the studies.
Allergen Immunization/Challenge Protocols: Mice received an i.p. injection of 0.2 ml (100 μg) of OVA with alum on the different protocols of Standard (FIG. 5A) and Resolution (FIG. 5B) (J. Exp Med. 1996; 184: 1483-1494). According to the different protocols, mice were anesthetized with 0.2 ml i.p. of ketamine (0.44 mg/ml)/xylazine (6.3 mg/ml) in normal saline before receiving an intranasal (i.n.) does of 100 μg OVA in 0.05 ml normal saline and an i.n. dose of 50 μg OVA in 0.05 ml normal saline separately on different days. Two control groups were used. Accordingly, the first group received normal saline with alum i.p. and normal saline without alum i.n.; the second group received OVA with alum i.p., OVA without alum i.n., and normal saline, alone.
The trachea and left lung (the right lung is used for bronchoalveolar lavage (“BAL”)) were obtained and fixed in 10% neutral formaldehyde solution at room temperature for 6˜15h. After being embedded in paraffin, the tissues were cut into 5-um sections and processed with the different staining or immunolabling further. Discombe's eosinophil staining was used for counting the cell numbers with the counterstain of methylene blue. The eosinophil number per unit airway area (2,200 μm^2) was determined by morphometry (J. Pathol. 1992; 166: 395-404; Am Rev Respir Dis. 1993; 147:448-456). Fibrosis was identified with the Masson's trichrome staining. Airway mucus was identified by the following staining method: methylene blue, hematoxylin and eosin, mucicarmine, alcian blue, and alcian blue/periodic acid-Schiff (PAS) reaction (Troyer, H., “Carbohydrates” in Principles and Techniques of Histochemistry, Little, Brown and Company, Boston, Mass., 1980: 89-121; Sheehan, D. C., et al., “Carbohydrates” in Theory and Practice of Histotechnology, Battle Press, Columbus, Ohio, 1980: 159-179). Mucin was stained with mucicarmine solution; metanil yellow counterstain was employed.
Acidic mucin and sulfated mucosubstances were stained with alcian blue, pH 2.5; nuclear fast red counterstain was used. Neutral and acidic mucosubstances were identified by alcian blue. pH 2.5, and PAS reaction. The degree of mucus plugging of the airways (0.5-0.8 mm in diameter) was also assessed by morphometry. The percent occlusion of airway diameter by mucus was classified on a semiquantitative scale from 0 to 4+ as described in Figure Legends. The histologic and morphometric analyses were performed by individuals blinded to the protocol design. […]

As to “f-Met-Leu-Phe-Phe (For-MLFF) [Example 9]”, for the setting “1-, 2- and 3-month groups, versus OVA”, the “Reduction of airway eosinophils over time course” value is “reduced eosinophils comparably at one month, but much more beneficially at two and three months”. Further, the “% of plug of airway” value (28 days) was 19%. Also, the “Mucus plug score in airways” value (28 days, semiquantitative scale 0 to 4+) is 1.4. For the same substance, under “HK-X given before i.n. OVA, FIG. 6, listed as HK-X”, the “Mucus accumulation / mucus release in the airway (histology, morphometry)” value is on record as “inhibits mucus accumulation; also recorded: markedly reduced”. The “Infiltration of the interstitial tissue by eosinophils (histology)” value (compared to OVA-challenge alone, FIG. 6C) is “also reduced”. The “Formation of mucus plugs / mucus production in small airways” value (doses of 5 μg/kg and 10 μg/kg, FIG. 7) is recorded as “Both doses significantly reduce the mucus production in small airways”.
